Test results: patent US12077503B2, “Substituted cyclic amides and their use as herbicides” (FMC CORPORATION, priority 2015, dated 2024)

What was measured:
Assay type in all cases: in vivo
[1] = tested on: barnyardgrass (Echinochloa crus-galli); assay: Test A preemergence; conditions: Echinochloa crus-galli, pre-emergence, 240 h, preemergence, 0 to 100 scale where 0 is no effect and 100 is complete control, read-out: Barnyardgrass plant response rating
Procedure, shortened: (§1)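 Seeded soil received test chemicals as a preemergence directed spray, and seedlings at one to two leaves, 2–10 cm tall, received them postemergence, in a non-phytotoxic, surfactant-containing solvent mixture. Pots were held in a greenhouse for approximately 10 d, then rated for injury from 0, no effect, to 100, complete control.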

Kochia (Kochia scoparia) [2] = assay: Test A preemergence; conditions: Bassia scoparia, pre-emergence, 240 h, preemergence, 0 to 100 scale where 0 is no effect and 100 is complete control, read-out: Kochia plant response rating
Procedure, shortened: as §1

[3] = tested on: ryegrass, Italian (Italian ryegrass, Lolium multiflorum); assay: Test A preemergence; conditions: Lolium multiflorum, pre-emergence, 240 h, preemergence, 0 to 100 scale where 0 is no effect and 100 is complete control, read-out: Ryegrass, Italian plant response rating
Procedure, shortened: as §1

[4] = tested on: giant foxtail (Setaria faberii); assay: Test A preemergence; conditions: Setaria faberi, pre-emergence, 240 h, preemergence, 0 to 100 scale where 0 is no effect and 100 is complete control, read-out: Foxtail, Giant plant response rating
Procedure, shortened: as §1

[5] = tested on: ragweed (common ragweed, Ambrosia elatior); assay: Test A preemergence; conditions: Ambrosia artemisiifolia, pre-emergence, 240 h, preemergence, 0 to 100 scale where 0 is no effect and 100 is complete control, read-out: Ragweed plant response rating
Procedure, shortened: as §1

[6] = tested on: pigweed (Amaranthus retroflexus); assay: Test A preemergence; conditions: Amaranthus retroflexus, pre-emergence, 240 h, preemergence, 0 to 100 scale where 0 is no effect and 100 is complete control, read-out: Pigweed plant response rating
[7] = tested on: barnyardgrass (Echinochloa crus-galli); assay: Test A postemergence; conditions: Echinochloa crus-galli, post-emergence, 240 h, postemergence, read-out: Barnyardgrass plant response rating
Procedure, shortened: as §1

[8] = tested on: Galium (catchweed bedstraw, Galium aparine); assay: Test A postemergence; conditions: Galium, post-emergence, 240 h, postemergence, read-out: Galium plant response rating
Procedure, shortened: as §1

[9] = tested on: blackgrass (Alopecurus myosuroides); assay: Test A postemergence; conditions: Alopecurus myosuroides, post-emergence, 240 h, postemergence, read-out: Blackgrass plant response rating
Procedure, shortened: as §1

Kochia (Kochia scoparia) [10] = assay: Test A postemergence; conditions: Bassia scoparia, post-emergence, 240 h, postemergence, read-out: Kochia plant response rating
Procedure, shortened: as §1

[11] = tested on: ryegrass, Italian (Italian ryegrass, Lolium multiflorum); assay: Test A postemergence; conditions: Lolium multiflorum, post-emergence, 240 h, postemergence, read-out: Ryegrass, Italian plant response rating
Procedure, shortened: as §1

[12] = tested on: giant foxtail (Setaria faberii); assay: Test A postemergence; conditions: Setaria faberi, post-emergence, 240 h, postemergence, read-out: Foxtail, Giant plant response rating
Procedure, shortened: as §1

corn (Zea mays) = assay: Test A postemergence; conditions: Zea mays, post-emergence, 240 h, postemergence, read-out: Corn plant response rating
Procedure, shortened: as §1

[13] = tested on: ragweed (common ragweed, Ambrosia elatior); assay: Test A postemergence; conditions: Ambrosia artemisiifolia, post-emergence, 240 h, postemergence, read-out: Ragweed plant response rating
Procedure, shortened: as §1

[14] = tested on: wheat (Triticum aestivum); assay: Test A postemergence; conditions: Triticum aestivum, post-emergence, 240 h, postemergence, read-out: Wheat plant response rating
Procedure, shortened: as §1

[15] = 125 g ai/ha, visual injury on 0 to 100 scale (0 no effect, 100 complete control), approx. 10 d
[16] = 500 g ai/ha, 0 to 100 scale, 0 is no effect, 100 is complete control

CSc1ccccc1NC(=O)[C@H]1C(=O)NC[C@@H]1c1cc(F)c(F)c(F)c1 [Compound 1124] showed a pest or weed control at 125 g/ha ([1]; 125 g ai/ha, approx. 10 d) of 60%, a pest or weed control at 500 g/ha ([1]; 500 g ai/ha) of 90% and a pest or weed control at 125 g/ha (Kochia (Kochia scoparia) [2]; 125 g ai/ha, approx. 10 d) of 70%. For the same molecule, the pest or weed control at 500 g/ha (Kochia (Kochia scoparia) [2]; 500 g ai/ha) was 90%, the pest or weed control at 125 g/ha ([3]; 125 g ai/ha, approx. 10 d) was 0% and the pest or weed control at 500 g/ha ([3]; 500 g ai/ha) was 30%. For the same molecule, the pest or weed control at 125 g/ha ([4]; 125 g ai/ha, approx. 10 d) was 90%, the pest or weed control at 500 g/ha ([4]; 500 g ai/ha) was 90% and the pest or weed control at 125 g/ha ([5]; 125 g ai/ha, approx. 10 d) was 0%. It also gave a pest or weed control at 500 g/ha ([5]; 500 g ai/ha) of 60%, a pest or weed control at 125 g/ha ([6]; 125 g ai/ha, approx. 10 d) of 50% and a pest or weed control at 500 g/ha ([6]; 500 g ai/ha) of 70%. It also gave a pest or weed control at 125 g/ha [7, 15] of 60%, a pest or weed control at 500 g/ha [7, 16] of 90% and a pest or weed control at 125 g/ha [8, 15] of 50%. For the same molecule, the pest or weed control at 500 g/ha [8, 16] was 60%, the pest or weed control at 125 g/ha [9, 15] was 0% and the pest or weed control at 500 g/ha [9, 16] was 0%. For the same molecule, the pest or weed control at 125 g/ha (Kochia (Kochia scoparia) [10]; [15]) was 60%, the pest or weed control at 500 g/ha (Kochia (Kochia scoparia) [10]; [16]) was 70% and the pest or weed control at 125 g/ha [11, 15] was 0%. It also gave a pest or weed control at 500 g/ha [11, 16] of 0%, a pest or weed control at 125 g/ha [12, 15] of 60% and a pest or weed control at 500 g/ha [12, 16] of 90%. The plant injury at 125 g/ha (corn (Zea mays); [15]) was 0%, the plant injury at 500 g/ha (corn (Zea mays); [16]) was 0% and the pest or weed control at 125 g/ha [13, 15] was 0%. The pest or weed control at 500 g/ha [13, 16] was 50%, the plant injury at 125 g/ha [14, 15] was 0% and the plant injury at 500 g/ha [14, 16] was 0%.
